Assay [1] concerns cellular histone deacetylase enzymatic activity in Jurkat E6-1 cells. The assay is described as follows: Inhibition of cellular HDAC activity, Boc-Lys(Tfa)-AMC substrate (Cell Lys-TFA). The note with it: Homo sapiens, Jurkat E6.1, Lys-TFA substrate. It counts as cell-based. The procedure, abridged: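 Jurkat E6-1 cells (75,000/well) were treated with a 16-point compound dilution for 2 h at 37 °C, then exposed to Boc-Lys(Tfa)-AMC for 3 h. Lysis buffer containing trypsin was added overnight (15-16 h), and AMC fluorescence was read at Ex 355/Em 460 nm.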

Assay [2] concerns the target Histone Deacetylase 4 (HDAC4) catalytic domain (Homo sapiens (Human), UniProt P56524). Description: Biochemical HDAC inhibition assay, fluorogenic substrate Boc-Lys(Tfa)-AMC. The procedure, abridged:
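Human HDAC4 catalytic domain (aa 648-1032, C-terminal His6) at 0.2 μg/mL working solution was tested against a 16-point compound dilution series in Tris buffer pH 8.0 for 15 min at 37 °C. Substrate Boc-Lys(Tfa)-AMC was prepared at 50 μM (5×). The reaction was stopped with trypsin plus reference inhibitor for 1 h at 37 °C, and AMC fluorescence was read at Ex 355/Em 460 nm.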

For assay [3], the system named is cellular histone deacetylase activity (Lys-Ac). The assay is described as follows: Inhibition of cellular HDAC activity (Cell Lys-Ac). It counts as cell-based. The note with it: Lys-Ac substrate.

SMILES strings stand for the structures. Bounds are passed on as bounds.

Histone Deacetylase 4 (HDAC4) catalytic domain, sequence (P56524 648-1032): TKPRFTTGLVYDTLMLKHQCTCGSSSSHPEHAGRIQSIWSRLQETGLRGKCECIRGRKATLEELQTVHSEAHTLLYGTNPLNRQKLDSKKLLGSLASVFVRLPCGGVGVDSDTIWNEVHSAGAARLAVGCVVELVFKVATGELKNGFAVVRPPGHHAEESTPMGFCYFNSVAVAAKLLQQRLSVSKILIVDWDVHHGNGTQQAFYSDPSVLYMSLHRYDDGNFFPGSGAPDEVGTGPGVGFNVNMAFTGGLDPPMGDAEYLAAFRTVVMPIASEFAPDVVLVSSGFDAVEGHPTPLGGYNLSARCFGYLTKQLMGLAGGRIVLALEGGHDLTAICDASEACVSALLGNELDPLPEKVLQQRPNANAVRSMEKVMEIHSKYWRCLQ

For the molecule `Cc1ccc(-n2ncc3c2C[C@](C(=O)NO)(c2cccc(F)c2C)C3)cc1` [Example 9, (S)-5-(3-Fluoro-2-methylphenyl)-N-hydroxy-1-(p-tolyl)-1,4,5,6-tetrahydrocyclopenta[c]pyrazole-5-carboxamide], the values for the IC50 in assay [1], in assay [2] and in assay [3] were 82 nM, 39 nM and greater than 50000 nM, respectively.

Usually IC50 stands for the concentration needed to halve the response being measured. Low values mean greater potency in that assay, high ones weaker potency in that assay.
